The nature of series [1]: Transcellular transport test using Caco2 cell. It is filed as in vitro ADME. To be noted: human, Caco-2; Caco2 monolayer, A-to-B, 10 μM compound, pH 7.4, 90 minutes. The method, then:
Caco2 cells (purchased from ATCC) were cultured in DMEM medium (Thermo Fisher Scientific, Inc., 11965) containing 10% FBS (Thermo Fisher Scientific, Inc., 10082) and 1% penicillin/streptomycin/amphotericin B (Thermo Fisher Scientific, Inc., 15240). A transcellular transport test was carried out in accordance with MultiScreen Caco2 Drug Transport Assembly in a 96-well system (Application Note AN1727EN, MultiScreen Caco-2 Assay System, Merck) by partially modifying it. The Caco2 cells were inoculated at a cell density of 4×10^4 cells/well onto a micropore polycarbonate insert of a 96-well plate (Merck, Millcell-96 culture insert plate 0.4 μm pore size, well membrane area=0.11 cm^2, PSHT004S5) and cultured for 20 to 22 days, and the resulting monolayer was used in the transcellular transport test. The medium of the inoculated cells was replaced with a fresh one every 3 to 4 days.
Apical-to-basolateral (A-to-B) transport in the Caco2 cell monolayer membrane was performed by using HBSS (Thermo Fisher Scientific, Inc., 14025) medium (pH=7.4) containing 20 mM HEPES (Thermo Fisher Scientific, Inc., 15630), and adding HEPES-containing HBSS medium containing 10 μM compound (a 10 mM solution of the compound in DMSO was added at a 1000-fold dilution; final DMSO concentration: 0.1%) at 75 μL/well to the apical side and HEPES-containing HBSS medium supplemented with no compound at 250 μL/well to the basolateral side, followed by culture at 37° C. for 90 minutes. After culture, a 100 μL aliquot was collected from the basolateral side, and the concentration of a permeated compound was measured by LC-MS/MS under measurement conditions mentioned later. Papp (apparent permeability; cm/sec) was calculated from the determined concentration. Papp was determined according to the expression given below by calculating the slope (dA/dt; nmol/sec) of a straight line drawn between two points 0 minutes and zero amount of the compound in a graph plotted with an assay time (90 min) on the abscissa against the amount of the compound in the solution on the permeated side on the ordinate. As for an assay concentration, the concentration in the compound in the HEPES-containing HBSS medium containing the added compound was measured by UV-HPLC under measurement conditions mentioned later.
Papp (cm/sec)=C0×S×(dA/dt)
C0: assay concentration, S: plate membrane area=0.11 cm^2

In series [2] the target is T1, αvβ1 (UniProt G3HZ55+P06756).
T1 construct: expressed in transfected cells; host or cells: CHO cells deficient in α5 gene, transfected with αv gene
T1 sequence (P06756 31-889 limits assumed): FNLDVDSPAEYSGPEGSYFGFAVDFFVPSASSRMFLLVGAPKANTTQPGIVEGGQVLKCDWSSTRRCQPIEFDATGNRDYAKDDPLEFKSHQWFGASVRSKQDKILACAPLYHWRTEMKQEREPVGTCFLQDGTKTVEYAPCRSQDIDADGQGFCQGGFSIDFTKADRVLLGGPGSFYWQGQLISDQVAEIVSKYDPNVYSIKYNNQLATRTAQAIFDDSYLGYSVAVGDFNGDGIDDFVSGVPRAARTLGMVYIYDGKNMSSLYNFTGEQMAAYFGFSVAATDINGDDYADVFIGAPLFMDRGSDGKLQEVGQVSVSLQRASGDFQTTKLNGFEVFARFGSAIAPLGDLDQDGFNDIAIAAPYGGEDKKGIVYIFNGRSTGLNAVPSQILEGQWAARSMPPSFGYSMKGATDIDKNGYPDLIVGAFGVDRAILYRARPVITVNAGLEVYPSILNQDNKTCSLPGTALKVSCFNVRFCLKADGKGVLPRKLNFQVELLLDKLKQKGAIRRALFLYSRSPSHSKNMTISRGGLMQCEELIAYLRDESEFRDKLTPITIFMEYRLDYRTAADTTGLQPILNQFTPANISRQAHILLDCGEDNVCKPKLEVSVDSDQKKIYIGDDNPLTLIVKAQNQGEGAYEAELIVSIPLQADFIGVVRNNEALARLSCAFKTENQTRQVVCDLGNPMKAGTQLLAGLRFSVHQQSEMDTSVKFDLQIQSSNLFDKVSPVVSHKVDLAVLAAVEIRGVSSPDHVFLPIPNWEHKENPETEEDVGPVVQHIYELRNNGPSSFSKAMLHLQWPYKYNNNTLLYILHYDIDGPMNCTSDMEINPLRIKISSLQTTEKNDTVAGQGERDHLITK
T1 sequence (P06756 891-1048 limits assumed): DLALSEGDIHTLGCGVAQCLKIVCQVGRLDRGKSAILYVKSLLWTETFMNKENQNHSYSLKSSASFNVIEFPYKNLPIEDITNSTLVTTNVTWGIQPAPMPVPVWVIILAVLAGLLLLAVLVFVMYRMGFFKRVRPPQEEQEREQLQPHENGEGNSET
T1 sequence (G3HZ55 21-798): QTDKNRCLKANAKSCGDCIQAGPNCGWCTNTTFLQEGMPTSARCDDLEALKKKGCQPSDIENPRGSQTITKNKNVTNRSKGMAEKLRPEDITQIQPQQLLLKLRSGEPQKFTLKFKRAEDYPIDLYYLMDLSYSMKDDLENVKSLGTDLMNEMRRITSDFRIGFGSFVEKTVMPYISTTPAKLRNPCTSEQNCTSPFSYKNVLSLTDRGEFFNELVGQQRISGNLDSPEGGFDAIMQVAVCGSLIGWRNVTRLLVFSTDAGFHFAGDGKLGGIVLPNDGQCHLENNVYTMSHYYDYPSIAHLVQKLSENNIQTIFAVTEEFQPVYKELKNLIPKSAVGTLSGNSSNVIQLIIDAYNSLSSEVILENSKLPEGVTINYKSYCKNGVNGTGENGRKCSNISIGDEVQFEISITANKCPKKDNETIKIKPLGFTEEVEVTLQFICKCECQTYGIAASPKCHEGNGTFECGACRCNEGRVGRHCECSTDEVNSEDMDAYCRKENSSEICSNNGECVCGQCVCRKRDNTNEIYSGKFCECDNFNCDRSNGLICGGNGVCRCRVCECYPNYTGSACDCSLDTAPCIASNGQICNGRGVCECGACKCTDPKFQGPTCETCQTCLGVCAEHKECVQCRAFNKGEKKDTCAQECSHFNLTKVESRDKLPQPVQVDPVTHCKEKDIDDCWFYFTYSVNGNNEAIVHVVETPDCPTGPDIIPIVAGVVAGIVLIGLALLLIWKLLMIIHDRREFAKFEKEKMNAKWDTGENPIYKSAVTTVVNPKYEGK
Description: αvβ1 cell adhesion inhibition test (αv-transfected CHO cells on human fibronectin). The class given is cell-based. To be noted: human fibronectin coating, 1 mM MnCl2, 1 hour, read-out: IC50 (rate of inhibition of cell adhesion, αvβ1). The procedure: Test Example 1 was performed by partially modifying the method of Reed et al. (Sci Transl Med., 7 (288), 288ra79, 2015).
Human fibronectin (manufactured by Sigma-Aldrich Co. LLC, F0895) was prepared at 1.25 μg/mL with phosphate buffered saline (PBS), dispensed at 100 μL/well to a 96-well plate, and left standing overnight. The plate was washed with Hanks' balanced salt solution (HBSS), then subjected to blocking treatment with Dulbecco's modified Eagle medium (DMEM) containing 1% bovine serum-derived albumin (BSA) (FUJIFILM Wako Pure Chemical Corp., for cell culture, 017-22231), and used as a coated plate in the adhesion test.
αv-transfected cells (CHO cells deficient in α5 gene and transfected with αv gene) cultured in Ham's F-12 medium (FUJIFILM Wako Pure Chemical Corp., 087-08335) containing 10% fetal bovine serum (FBS), 1% penicillin/streptomycin/amphotericin B (manufactured by Thermo Fisher Scientific, Inc., 15240), 1 mM GlutaMAX Supplement (manufactured by Thermo Fisher Scientific, Inc., 35050), and 400 μg/mL hygromycin B (FUJIFILM Wako Pure Chemical Corp., 080-07683) were recovered and suspended in DMEM containing 1 mM MnCl2 (manufactured by Sigma-Aldrich Co. LLC, M1787) to prepare a cell suspension. A test compound dissolved in DMSO was added thereto.
The cell suspension of 1×10^6 cells/mL containing the test compound was added at 100 μL/well to the coated plate and left standing for 1 hour in a 5% CO2 incubator (37° C.). One hour later, the supernatant was removed, and the plate was washed with HBSS. The cells that adhered to each well in the plate were stained with crystal violet, and the cells were lysed, followed by absorbance measurement. Inhibition without substrate coating was defined as 100% inhibition, and inhibition when DMSO was added instead of the test compound was defined as 0% inhibition. The rate of inhibition of cell adhesion by the test compound was calculated according to the following expression.
Rate of inhibition of cell adhesion (%)=[1−{(Absorbance in the case of adding the test compound)−(Absorbance without substrate coating)}/{(Absorbance in the case of adding DMSO)−(Absorbance without substrate coating)}]×100
An IC50 value was calculated from the rate of inhibition of cell adhesion by the test compound. A: IC50<3 nM, B: 3 nM≤IC50<10 nM, C: 10 nM≤IC50<30 nM, D: 30 nM≤IC50<100 nM, or E: IC50≥100 nM.

15 molecules from patent US20230192661A1, “1, 4, 5, 6-TETRAHYDROPYRIMIDINE-2-AMINE DERIVATIVE” (UBE Corporation, priority 2020, published 2023) can be followed below.

For `O=C(O)C[C@H](NC(=O)CNC(=O)c1cc(NC2=NCC(F)CN2)c2cn[nH]c2c1)c1cc(OC(F)F)cc(OC(F)F)c1` (stereo partly drawn) [Example 30-(b), (3S)-3-(3,5-bis(difluoromethoxy)phenyl)-3-(2-(4-((5-fluoro-1,4,5,6-tetrahydropyrimidin-2-yl)amino)-1H-indazole-6-carboxamido)acetamido)propanoic acid], the Papp A→B at 90 min, 10 μM in series [1] was in the range of 0.5 to 1 ×10⁻⁶ cm/s. In addition, in series [2], the IC50 was below 3 nM.

In series [1], `O=C(O)C[C@H](NC(=O)CNC(=O)c1cc(NC2=NCC(F)CN2)c2cn[nH]c2c1)c1cc(Cl)cc(OC(F)(F)F)c1` (stereo partly drawn) [Example 31-(b), (3S)-3-(3-chloro-5-(trifluoromethoxy)phenyl)-3-(2-(4-((5-fluoro-1,4,5,6-tetrahydropyrimidin-2-yl)amino)-1H-indazole-6-carboxamido)acetamido)propanoic acid] returned a Papp A→B at 90 min, 10 μM above 1 ×10⁻⁶ cm/s. In series [2], the IC50 was 3 to 10 nM.

Take `O=C(O)C[C@H](NC(=O)CNC(=O)c1cc(NC2=NCC(F)CN2)c2cn[nH]c2c1)c1cc(Br)cc(OC(F)(F)F)c1` (stereo partly drawn) [Example 32-(b), (3S)-3-(3-bromo-5-(trifluoromethoxy)phenyl)-3-(2-(4-((5-fluoro-1,4,5,6-tetrahydropyrimidin-2-yl)amino)-1H-indazole-6-carboxamido)acetamido)propanoic acid]: in series [1], the Papp A→B at 90 min, 10 μM was above 1 ×10⁻⁶ cm/s. Further, in series [2], the IC50 was below 3 nM.

Molecule `O=C(O)C[C@H](NC(=O)CNC(=O)c1cc(NC2=NCC(F)CN2)c2cn[nH]c2c1)c1cc(OC(F)(F)F)ccc1F` (stereo partly drawn) [Example 33-(b), (3S)-3-(2-(4-((5-fluoro-1,4,5,6-tetrahydropyrimidin-2-yl)amino)-1H-indazole-6-carboxamido)acetamido)-3-(2-fluoro-5-(trifluoromethoxy)phenyl)propanoic acid] gave a Papp A→B at 90 min, 10 μM in series [1] above 1 ×10⁻⁶ cm/s. Further, the IC50 in series [2] was below 3 nM.

`O=C(O)C[C@H](NC(=O)CNC(=O)c1cc(NC2=NCC(F)CN2)c2cn[nH]c2c1)c1ccc(F)c(OC(F)(F)F)c1` (stereo partly drawn) [Example 34-(b), (3S)-3-(2-(4-((5-fluoro-1,4,5,6-tetrahydropyrimidin-2-yl)amino)-1H-indazole-6-carboxamido)acetamido)-3-(4-fluoro-3-(trifluoromethoxy)phenyl)propanoic acid] returned a Papp A→B at 90 min, 10 μM in series [1] above 1 ×10⁻⁶ cm/s. In addition, the IC50 in series [2] is below 3 nM.

In series [1], `O=C(O)C[C@H](NC(=O)CNC(=O)c1cc(NC2=NCC(F)CN2)c2cn[nH]c2c1)c1cccc(C(F)(F)F)c1` (stereo partly drawn) [Example 35-(b), (3S)-3-(2-(4-((5-fluoro-1,4,5,6-tetrahydropyrimidin-2-yl)amino)-1H-indazole-6-carboxamido)acetamido)-3-(3-(trifluoromethyl)phenyl)propanoic acid] displayed a Papp A→B at 90 min, 10 μM above 1 ×10⁻⁶ cm/s. In addition, the IC50 in series [2] was in the range of 3 to 10 nM.

On to `O=C(O)C[C@H](NC(=O)CNC(=O)c1cc(NC2=NCC(F)CN2)c2cn[nH]c2c1)c1cccc(OC(F)(F)F)c1` (stereo partly drawn) [Example 36-(b), (3S)-3-(2-(4-((5-fluoro-1,4,5,6-tetrahydropyrimidin-2-yl)amino)-1H-indazole-6-carboxamido)acetamido)-3-(3-(trifluoromethoxy)phenyl)propanoic acid], for which the Papp A→B at 90 min, 10 μM in series [1] was above 1 ×10⁻⁶ cm/s. Besides, in series [2], the IC50 is 3 to 10 nM.

In series [1], `O=C(O)C[C@H](NC(=O)CNC(=O)c1cc(NC2=NCC(F)CN2)c2cn[nH]c2c1)c1cccc(OC(F)F)c1` (stereo partly drawn) [Example 37-(b), (3S)-3-(3-(difluoromethoxy)phenyl)-3-(2-(4-((5-fluoro-1,4,5,6-tetrahydropyrimidin-2-yl)amino)-1H-indazole-6-carboxamido)acetamido)propanoic acid] came in with a Papp A→B at 90 min, 10 μM above 1 ×10⁻⁶ cm/s. In addition, the IC50 in series [2] was in the range of 3 to 10 nM.

`O=C(O)C[C@H](NC(=O)CNC(=O)c1cc(NC2=NCC(F)CN2)c2cn[nH]c2c1)c1cccc(C(F)F)c1` (stereo partly drawn) [Example 38-(b), (3S)-3-(3-(difluoromethyl)phenyl)-3-(2-(4-((5-fluoro-1,4,5,6-tetrahydropyrimidin-2-yl)amino)-1H-indazole-6-carboxamido)acetamido)propanoic acid] displayed a Papp A→B at 90 min, 10 μM in series [1] above 1 ×10⁻⁶ cm/s. In addition, the IC50 in series [2] is below 3 nM.

Turning to `O=C(O)C[C@H](NC(=O)CNC(=O)c1cc(NC2=NCC(F)CN2)c2cn[nH]c2c1)c1cccc(C2CC2)c1` (stereo partly drawn) [Example 39-(b), (3S)-3-(3-cyclopropylphenyl)-3-(2-(4-((5-fluoro-1,4,5,6-tetrahydropyrimidin-2-yl)amino)-1H-indazole-6-carboxamido)acetamido)propanoic acid], the Papp A→B at 90 min, 10 μM in series [1] is above 1 ×10⁻⁶ cm/s. Besides, the IC50 in series [2] is below 3 nM.

For the molecule `O=C(O)C[C@H](NC(=O)CNC(=O)c1cc(NC2=NCC(F)CN2)c2cn[nH]c2c1)c1cccc(OC2CC2)c1` (stereo partly drawn) [Example 40-(b), (3S)-3-(3-cyclopropoxyphenyl)-3-(2-(4-((5-fluoro-1,4,5,6-tetrahydropyrimidin-2-yl)amino)-1H-indazole-6-carboxamido)acetamido)propanoic acid], in series [1], the Papp A→B at 90 min, 10 μM is above 1 ×10⁻⁶ cm/s. Moreover, the IC50 in series [2] was below 3 nM.

In turn, `O=C(O)C[C@H](NC(=O)CNC(=O)c1cc(NC2=NCC(F)CN2)c2cn[nH]c2c1)c1cccc(Cl)c1` (stereo partly drawn) [Example 41-(b), (3S)-3-(3-chlorophenyl)-3-(2-(4-((5-fluoro-1,4,5,6-tetrahydropyrimidin-2-yl)amino)-1H-indazole-6-carboxamido)acetamido)propanoic acid] showed an apparent permeability from apical to basolateral (Papp A→B) at 90 min, 10 μM in series [1] above 1 ×10⁻⁶ cm/s. Moreover, the IC50 in series [2] lay in the range of 3 to 10 nM.

As for `O=C(O)C[C@H](NC(=O)CNC(=O)c1cc(NC2=NCC(F)CN2)c2cn[nH]c2c1)c1cccc(Br)c1` (stereo partly drawn) [Example 42-(b), (3S)-3-(3-bromophenyl)-3-(2-(4-((5-fluoro-1,4,5,6-tetrahydropyrimidin-2-yl)amino)-1H-indazole-6-carboxamido)acetamido)propanoic acid], the Papp A→B at 90 min, 10 μM in series [1] is above 1 ×10⁻⁶ cm/s. Besides, the concentration for half-maximal inhibition (IC50) in series [2] is 3 to 10 nM.

For `O=C(O)C[C@H](NC(=O)CNC(=O)c1cc(NC2=NCC(F)CN2)c2cn[nH]c2c1)c1cccc(-n2cccn2)c1` (stereo partly drawn) [Example 43-(b), (3S)-3-(3-(1H-pyrazol-1-yl)phenyl)-3-(2-(4-((5-fluoro-1,4,5,6-tetrahydropyrimidin-2-yl)amino)-1H-indazole-6-carboxamido)acetamido)propanoic acid], the Papp A→B at 90 min, 10 μM in series [1] was above 1 ×10⁻⁶ cm/s. Also, the IC50 in series [2] is 3 to 10 nM.

`Cc1cc(C)n(-c2cccc([C@H](CC(=O)O)NC(=O)CNC(=O)c3cc(NC4=NCC(F)CN4)c4cn[nH]c4c3)c2)n1` (stereo partly drawn) [Example 44-(b), (3S)-3-(3-(3,5-dimethyl-1H-pyrazol-1-yl)phenyl)-3-(2-(4-((5-fluoro-1,4,5,6-tetrahydropyrimidin-2-yl)amino)-1H-indazole-6-carboxamido)acetamido)propanoic acid] returned a Papp A→B at 90 min, 10 μM in series [1] of 0.5 to 1 ×10⁻⁶ cm/s. Further, the IC50 in series [2] is below 3 nM.
